Patent publication US6552072B2, “Use of metal complexes to treat gastrointestinal infections” (Pfylori Limited, priority 1996, dated 2003)

Tested on: H. pylori
Experiment: In vitro minimum inhibitor concentrations (MICs) of metal-ligand complexes against H. pylori
Format: cell-based
Conditions: Example 1
Source text: In Vitro Minimum Inhibitor Concentrations (MICs) Using Metal-ligand Complexes
Study of MICs of Other Metal-ligands Against H. pylori

SMILES	MIC (Helicobacter pylori) [µg/mL]	MIC against H. pylori
O=C(O)CC(O)(CC(=O)O)C(=O)O [Citrate]	> 0.064	–
[O-][n+]1ccccc1[S-].[O-][n+]1ccccc1[S-].[Zn+2] [Zinc Salt]	–	>>64 μg/l
O=C([O-])CC(O)(CC(=O)[O-])C(=O)[O-].O=C([O-])CC(O)(CC(=O)[O-])C(=O)[O-].[Zn+2].[Zn+2].[Zn+2] [Zinc Citrate, Zinc citrate]	–	8 to 64 µg/L
